According to patent publication US20170232083A1, “METHODS OF DIAGNOSIS AND TREATMENT OF CELIAC DISEASE IN CHILDREN” (priority 2014, published 2017):

Tested on: PBMC (polyclonal gluten-specific T cells) of paediatric and adult CD patients
Test: IFN-γ ELISpot of PBMC after 3 day oral wheat challenge (SFU, % of maximal peptide response, dominance scores, EC50; Examples 5-6)
Assay type: cell-based, human
Settings: for Cross-reactive T cell response: following wheat challenge; for IFN-γ ELISpot response: after oral wheat challenge
[1] = subject I (3-5yrs/6-10yrs part)
[2] = subject J (3-5yrs/6-10yrs part)
[3] = subject K (3-5yrs/6-10yrs part)
[4] = subject V (3-5yrs/6-10yrs part)
[5] = subject W (3-5yrs/6-10yrs part)
[6] = subject Y (3-5yrs/6-10yrs part)
[7] = subject five (3-5yrs/6-10yrs part)
[8] = subject seven (3-5yrs/6-10yrs part)
[9] = subject six (3-5yrs/6-10yrs part)
[10] = subject ten (3-5yrs/6-10yrs part)
[11] = subject two (3-5yrs/6-10yrs part)

Question: With NPLQPEQPFPLQPQPP as the sequence, how does the “Cross-reactive T cell response” value (subject A, 11-17yrs) read?
Answer: Its value is 3 SFU.

Question: And the “Significant response as a percentage of maximal peptide SFU” value (from here on “Significant response as a percentage”) (subject D, 11-17yrs)?
Answer: Its value is “′′ (21-40% = ′′)”.

Question: What about the “Cross-reactive T cell response” value (subject D, 11-17yrs) of the same sequence?
Answer: The value was 12 SFU.

Question: What about the “Significant response as a percentage” value (subject E, 11-17yrs) of the same sequence?
Answer: Its value is “(6-10% - ^)”.

Question: What about the “Cross-reactive T cell response” value (subject E, 11-17yrs) of the same sequence?
Answer: The value was 21 SFU.

Question: And the “Significant response as a percentage” value (subject F, 11-17yrs)?
Answer: Its value is “′ (11-20% = ′)”.

Question: And the “Cross-reactive T cell response” value (subject F, 11-17yrs)?
Answer: Its value is 25 SFU.

Question: And the “Cross-reactive T cell response” value (subject G, 11-17yrs)?
Answer: The value was 1 SFU.

Question: And the “Significant response as a percentage” value (subject H, 11-17yrs)?
Answer: The value was “+ (>70% = +)”.

Question: And the “Cross-reactive T cell response” value (subject H)?
Answer: The value was 14 SFU.

Question: And the “Cross-reactive T cell response” value [1]?
Answer: Its value is 1 SFU.

Question: What about the “Significant response as a percentage” value (subject J) of the same sequence?
Answer: Its value is “′ (11-20% = ′)”.

Question: What about the “Cross-reactive T cell response” value [2] of the same sequence?
Answer: The value was 38 SFU.

Question: What about the “Significant response as a percentage” value (subject K) of the same sequence?
Answer: Its value is “′′ (21-40% = ′′)”.

Question: And the “Cross-reactive T cell response” value [3]?
Answer: Its value is 19 SFU.

Question: And the “Cross-reactive T cell response” value (subject P, 11-17yrs)?
Answer: Its value is 6 SFU.

Question: And the “Significant response as a percentage” value (subject Q, 11-17yrs)?
Answer: Its value is “′′ (21-40% = ′′)”.

Question: And the “Cross-reactive T cell response” value (subject Q, 11-17yrs)?
Answer: Its value is 23 SFU.

Question: And the “Significant response as a percentage” value (subject T, 11-17yrs)?
Answer: Its value is “′′ (21-40% = ′′)”.

Question: What about the “Cross-reactive T cell response” value (subject T, 11-17yrs) of the same sequence?
Answer: Its value is 33 SFU.

Question: What about the “Cross-reactive T cell response” value (subject U, 11-17yrs) of the same sequence?
Answer: Its value is 9 SFU.

Question: What about the “Cross-reactive T cell response” value [4] of the same sequence?
Answer: Its value is 6 SFU.

Question: And the “Cross-reactive T cell response” value [5]?
Answer: The value was 7 SFU.

Question: And the “Cross-reactive T cell response” value [6]?
Answer: The value was 3 SFU.

Question: What about the “Significant response as a percentage” value (subject five) of the same sequence?
Answer: The value was “′′ (21-40% = ′′)”.

Question: And the “Cross-reactive T cell response” value [7]?
Answer: The value was 14 SFU.

Question: And the “Cross-reactive T cell response” value (subject nine, 11-17yrs)?
Answer: The value was 1 SFU.

Question: What about the “Cross-reactive T cell response” value [8] of the same sequence?
Answer: Its value is 4 SFU.

Question: And the “Significant response as a percentage” value (subject six)?
Answer: Its value is “+ (>70% = +)”.

Question: What about the “Cross-reactive T cell response” value [9] of the same sequence?
Answer: The value was 13 SFU.

Question: And the “Significant response as a percentage” value (subject ten)?
Answer: The value was “+ (>70% = +)”.

Question: And the “Cross-reactive T cell response” value [10]?
Answer: The value was 11 SFU.

Question: What about the “Significant response as a percentage” value (subject two) of the same sequence?
Answer: Its value is “′ (11-20% = ′)”.

Question: And the “Cross-reactive T cell response” value [11]?
Answer: The value was 10 SFU.

Question: Which “IFN-γ ELISpot response” value (patient A, 11-17 yrs, cut-off 10 SFU) does the source give for PEQPFPEQPEQPF here?
Answer: The value was 2 SFU.

Question: What about the “IFN-γ ELISpot response” value (patient E, H, 11-17 yrs, cut-off 10 SFU) of the same sequence?
Answer: The value was 14 SFU.

Question: And the “Significant response as percentage of maximal peptide SFU” value (shortened to “Significant response as percentage”) (patient E, max peptide 224 SFU)?
Answer: Its value is “(6-10% = ^)”.

Question: What about the “IFN-γ ELISpot response” value (patient F, 11-17 yrs, cut-off 10 SFU) of the same sequence?
Answer: Its value is 2 SFU.

Question: And the “IFN-γ ELISpot response” value (patient G, 11-17 yrs, cut-off 10 SFU)?
Answer: The value was 2 SFU.

Question: What about the “IFN-γ ELISpot response” value (patient H (HLA-DQ2.5 homozygote), 3-5yrs, cut-off 10 SFU) of the same sequence?
Answer: Its value is 4 SFU.

Question: And the “IFN-γ ELISpot response” value (patient H, 11-17 yrs, cut-off 10 SFU)?
Answer: The value was 9 SFU.

Question: What about the “IFN-γ ELISpot response” value (patient ID not given, 11-17 yrs, cut-off 10 SFU) of the same sequence?
Answer: The value was 15 SFU.

Question: What about the “Significant response as percentage” value (patient ID not given, max peptide 95 SFU) of the same sequence?
Answer: The value was “′ (11-20% = ′)”.

Question: What about the “Significant response as percentage” value (patient J, max peptide 196 SFU) of the same sequence?
Answer: The value was “′ (11-20% = ′)”.

Question: And the “Significant response as percentage” value (patient K, max peptide 53 SFU)?
Answer: The value was “′′ (21-40% = ′′)”.

Question: What about the “IFN-γ ELISpot response” value (patient N, 3-5yrs, cut-off 10 SFU) of the same sequence?
Answer: The value was 0 SFU.

Question: And the “IFN-γ ELISpot response” value (patient P, 11-17 yrs, cut-off 21.6 SFU)?
Answer: The value was 10 SFU.

Question: And the “IFN-γ ELISpot response” value (patient Q, 11-17 yrs, cut-off 10 SFU)?
Answer: The value was 11 SFU.

Question: And the “Significant response as percentage” value (patient Q, max peptide 97 SFU)?
Answer: The value was “′ (11-20% = ′)”.

Question: What about the “IFN-γ ELISpot response” value (patient U, H, 11-17 yrs, cut-off 10 SFU) of the same sequence?
Answer: The value was 5 SFU.

Question: What about the “IFN-γ ELISpot response” value (patient V, 6-10 yrs, cut-off 10 SFU) of the same sequence?
Answer: Its value is 3 SFU.

Question: And the “IFN-γ ELISpot response” value (patient Y, 6-10 yrs, cut-off 10 SFU)?
Answer: The value was 2 SFU.

Question: What about the “IFN-γ ELISpot response” value (patient eleven, 6-10 yrs, cut-off 10 SFU) of the same sequence?
Answer: The value was 12 SFU.

Question: And the “Significant response as percentage” value (patient eleven, max peptide 57 SFU)?
Answer: Its value is “′′ (21-40% = ′′)”.

Question: What about the “IFN-γ ELISpot response” value (patient four, 3-5yrs, cut-off 10 SFU) of the same sequence?
Answer: Its value is 4 SFU.

Question: What about the “Significant response as percentage” value (patient nine, max peptide 10 SFU) of the same sequence?
Answer: Its value is “+ (>70% = +)”.

Question: What about the “IFN-γ ELISpot response” value (patient seven, 6-10 yrs, cut-off 10.5 SFU) of the same sequence?
Answer: The value was 5 SFU.

Question: And the “IFN-γ ELISpot response” value (patient ten, 3-5yrs, cut-off 10 SFU)?
Answer: Its value is 11 SFU.

Question: And the “Significant response as percentage” value (patient ten, max peptide 14.5 SFU)?
Answer: The value was “+ (>70% = +)”.

Question: What about the “IFN-γ ELISpot response” value (patient three, 6-10 yrs, cut-off 10.5 SFU) of the same sequence?
Answer: Its value is 24 SFU.

Question: What about the “IFN-γ ELISpot response” value (patient twelve, 11-17 yrs, cut-off 10 SFU) of the same sequence?
Answer: The value was 1 SFU.

Question: And the “IFN-γ ELISpot response” value (patient two, 3-5yrs, cut-off 10 SFU)?
Answer: Its value is 9 SFU.

Question: What does the source list for PEQPFPEQPQPYPQQP?
Answer: Cross-reactive T cell response (subject A, 11-17yrs): 2 SFU; Cross-reactive T cell response (subject D, 11-17yrs): 2 SFU; Significant response as a percentage of maximal peptide SFU (subject E, 11-17yrs): (6-10% - ^); Cross-reactive T cell response (subject E, 11-17yrs): 13 SFU; Cross-reactive T cell response (subject F, 11-17yrs): 6 SFU; Cross-reactive T cell response (subject G, 11-17yrs): 2 SFU; Cross-reactive T cell response (subject H): 6 SFU; Cross-reactive T cell response [1]: 2 SFU; Significant response as a percentage of maximal peptide SFU (subject J): ′ (11-20% = ′); Cross-reactive T cell response [2]: 36 SFU; Cross-reactive T cell response [3]: 6 SFU; Cross-reactive T cell response (subject P, 11-17yrs): 10 SFU; Cross-reactive T cell response (subject Q, 11-17yrs): 2 SFU; Cross-reactive T cell response (subject T, 11-17yrs): 0 SFU; Cross-reactive T cell response (subject U, 11-17yrs): 1 SFU; Cross-reactive T cell response [4]: 1 SFU; Cross-reactive T cell response [5]: 9 SFU; Cross-reactive T cell response [6]: 1 SFU; Cross-reactive T cell response [7]: 1 SFU; Cross-reactive T cell response (subject nine, 11-17yrs): 1 SFU; Cross-reactive T cell response [8]: 4 SFU; Cross-reactive T cell response [9]: 5 SFU; Significant response as a percentage of maximal peptide SFU (subject ten): + (>70% = +); Cross-reactive T cell response [10]: 12 SFU; Cross-reactive T cell response [11]: 1 SFU

Question: Which results are given for PEQPFQPEQPFPQQ?
Answer: Cross-reactive T cell response (subject A, 11-17yrs): 2 SFU; Cross-reactive T cell response (subject D, 11-17yrs): 1 SFU; Significant response as a percentage of maximal peptide SFU (subject E, 11-17yrs): (6-10% - ^); Cross-reactive T cell response (subject E, 11-17yrs): 12 SFU; Cross-reactive T cell response (subject F, 11-17yrs): 6 SFU; Cross-reactive T cell response (subject G, 11-17yrs): 5 SFU; Cross-reactive T cell response (subject H): 3 SFU; Cross-reactive T cell response [1]: 1 SFU; Significant response as a percentage of maximal peptide SFU (subject J): ′ (11-20% = ′); Cross-reactive T cell response [2]: 31 SFU; Cross-reactive T cell response [3]: 8 SFU; Cross-reactive T cell response (subject P, 11-17yrs): 9 SFU; Cross-reactive T cell response (subject Q, 11-17yrs): 7 SFU; Significant response as a percentage of maximal peptide SFU (subject T, 11-17yrs): ′ (11-20% = ′); Cross-reactive T cell response (subject T, 11-17yrs): 11 SFU; Cross-reactive T cell response (subject U, 11-17yrs): 6 SFU; Cross-reactive T cell response [4]: 7 SFU; Cross-reactive T cell response [5]: 3 SFU; Cross-reactive T cell response [6]: 1 SFU; Cross-reactive T cell response [7]: 3 SFU; Cross-reactive T cell response (subject nine, 11-17yrs): 0 SFU; Cross-reactive T cell response [8]: 7 SFU; Cross-reactive T cell response [9]: 2 SFU; Significant response as a percentage of maximal peptide SFU (subject ten): + (>70% = +); Cross-reactive T cell response [10]: 12 SFU; Cross-reactive T cell response [11]: 6 SFU
